Measured values from paper PMC7841069, “Identification of Chalcone Derivatives as Inhibitors of Leishmania infantum Arginase and Promising Antileishmanial Agents” (Frontiers in Chemistry, 2021).
Read-outs that look alike come from different tables or passages of the source.

Tests used:
[1] = test system: Leishmania amazonensis arginase (LaARG); set-up: method as in da Silva et al. (2019); settings: 100 μM; ref da Silva et al. (2019); cited from earlier work
[2] = Cytotoxicity assay (MTT); assay type: cell-based; settings: mouse, read-out: RAW 264.7 CC50 ± SE
Experimental: (§1) RAW 264.7 macrophages were cultured in DMEM medium (Sigma-Aldrich, USA) supplemented with 10% fetal bovine serum at 37°C in 5% CO2 atmosphere. Cells were plated on 96-well microplates at a density of 10^5 cells/well and incubated at 37°C in 5% CO2 for 2 h. After this period, increasing concentrations of inhibitors (0.9–4,307 μM) were added and the cultures were incubated at 37°C in 5% CO2 for 48 h. Subsequently, cell viability was measured by a colorimetric assay using 3-(4,5-dimethylthiazol-2-yl)-2,5-diphenyl tetrazolium bromide (MTT) (Sigma-Aldrich, USA). MTT was added to the culture medium at a final concentration of 1.0 mg/mL, and cultures were incubated at 37°C in 5% CO2 for 3 h. MTT was transformed by the living cells in formazan crystals that were dissolved in DMSO. The concentration of formazan was measured spectrophotometrically at 570 nm (SpectraMax M5, Molecular Devices, CA). The 50% cytotoxic concentration (CC50) values were determined by the nonlinear regression fits of the dose-response curves using GraphPad Prism 8.0. All measurements were performed in triplicates, twice independently.

[3] = test system: L. infantum-infected macrophages; assay: NO production by L. infantum-infected macrophages (Griess reaction); assay type: cell-based; settings: 11–54 μM, 48 h, vs untreated control
Experimental: (§2) Intracellular anti-amastigote activity was determined using the promastigote recovery assay with minor modifications (Ferreira et al., [2017]). RAW 264.7 macrophages were plated on 96-well microplates at a density of 10^5 cells/well and incubated at 37°C in 5% CO2 for 2 h. After this period, adherent cells were washed twice with phosphate buffered saline (PBS, pH 7.2) and infected with stationary-phase L. infantum promastigotes at a 10:1 parasite/macrophage ratio. After 4 h of infection at 37°C in 5% CO2, free parasites were removed by a wash step with PBS and infected macrophages were incubated for an additional 24 h to allow parasite differentiation into amastigotes. Then, infected cells were treated with increasing concentrations of selected LiARG inhibitors (11.0–54.0 μM) for 48 h. After this period, the culture supernatant was collected for the evaluation of NO production by the Griess reaction (Misko et al., [1993]), and cells were washed with PBS. Subsequently, PBHIL medium supplemented with 5% fetal bovine serum was added and the cultures were incubated at 26°C for 72 h to recover L. infantum promastigotes. Only viable amastigotes can differentiate into promastigotes. Then, parasite viability was determined by a colorimetric assay using MTT (1.0 mg/mL) (Sigma-Aldrich, USA), as described earlier. Fungizone® (130–540 nM) was used as the reference drug. Results were expressed as percentages of viability in relation to the control (100% viability). The 50% inhibitory concentration (IC50) values were determined by the nonlinear regression fits of the dose-response curves using GraphPad Prism 8.0. All measurements were performed in triplicates, twice independently.
Figure 4 Effect of chalcone derivatives on the production of nitric oxide by L. infantum-infected macrophages. L. infantum-infected macrophages were treated with increasing concentrations of (A–D) chalcone derivatives (11–54 μM) or (E) the reference drug fungizone (0.13–0.54 μM) and nitrite concentration was measured by the Griess reaction. Control represents the amount of nitric oxide produced by L. infantum-infected macrophages in the absence of any treatment. Statistical analysis of the differences between mean values obtained for the experimental groups was done by ANOVA with Tukey's post hoc test.

[4] = test system: Leishmania infantum intracellular amastigotes; assay: Activity against intracellular amastigotes (promastigote recovery assay); assay type: cell-based; settings: for Selectivity Index AMA: CC50 host cell / IC50 intracellular amastigotes
Experimental: as §2
(§3) The selectivity index for promastigotes and intracellular amastigotes of L. infantum was calculated by taking the ratio between the CC50 obtained for the host cell and the IC50 obtained for the parasite. Inhibitors displaying selectivity index > 10 were considered low cytotoxic (Katsuno et al., [2015]).

[5] = test system: Leishmania infantum promastigotes; assay: Activity against Leishmania infantum promastigotes (resazurin); assay type: cell-based; settings: for Selectivity Index PRO: CC50 host cell / IC50 promastigotes; for IC50: Leishmania infantum, read-out: Promastigotes IC50 ± SE
Experimental: Promastigotes of Leishmania infantum strain MHOM/BR/1974/PP75 were cultured in Schneider's medium supplemented with 10% fetal bovine serum at 26°C. First, the selected LiARG inhibitors were diluted in culture medium at concentrations ranging from 2.9 to 1,723.0 μM. Then, late-exponential phase (after 96 h growth) L. infantum promastigotes, at a final density of 10^5 parasites/mL, were incubated with previously diluted inhibitors at 26°C for 96 h. Subsequently, parasite viability was determined by a colorimetric assay using resazurin (Sigma-Aldrich, USA). Resazurin was added to the culture medium at a final concentration of 0.001% (w/v), and cultures were further incubated at 26°C for 4 h (Rólon et al., [2006]). Resazurin is reduced to resorufin by living cells, and the relative concentration of resorufin/resazurin was measured spectrophotometrically at 570/600 nm (SpectraMax M5, Molecular Devices, CA), respectively. Fungizone® (2.0–650.0 nM) was used as the reference drug. The 50% inhibitory concentration (IC50) values were determined by the nonlinear regression fits of the dose-response curves using GraphPad Prism 8.0. All measurements were performed in triplicates, twice independently.
as §3

[6] = test system: RAW 264.7 macrophages; set-up: method as in Ventura et al. (2015); settings: ref Ventura et al. (2015), read-out: IC50 for NO; cited from earlier work
[7] = test system: RAW 264.7 macrophages; assay: Cytotoxicity assay (MTT); assay type: cell-based; settings: 48 h
Experimental: as §1

[8] = test system: Leishmania infantum arginase (LiARG); assay: LiARG enzyme inhibition assay (urea formation, UREA CE kit); assay type: biochemical; settings: 100 μM inhibitor; control without inhibitor = 100% activity
Experimental: LiARG expression and purification was performed as described previously (Garcia et al., [2019]). Escherichia coli BL21 (DE3) cells were transformed with RP1B-LiARG. Cells were grown at 37°C until mid-exponential phase (Abs600 ~ 0.6). Protein expression was induced with 1 mM IPTG and cells were grown for 16 h at 30°C. Cells were harvested by centrifugation, resuspended in lysis buffer [50 mM Tris-HCl (pH 8.0), 500 mM NaCl, 5 mM imidazol, 0.1% Triton-X 100, 250 μM PMSF, 10 mM β-mercaptoethanol] and lysed by sonication (15 cycles 60 s on and 60 s off, 100 W). The cell lysate was centrifuged (8,000 X g, 40 min, 4°C), and the clarified supernatant was loaded onto a His-Trap HP column (GE Healthcare, USA). A wash step with 100 mM manganese chloride was carried out for enzyme activation. LiARG was eluted with an imidazole gradient ranging from 5 to 500 mM. […] LiARG activity was measured using the UREA CE kit (Labtest, Brazil). Urea concentration was determined spectrophotometrically (SpectraMax M5, Molecular Devices, CA) by hydrolyzing urea into ammonia and then converting ammonia into indophenol blue, which absorbs light at 600 nm ([…] and Scott, [1960]). Enzyme activity was measured with 0.2 μg/mL LiARG incubated with 50 mM L-arginine in 50 mM CHES (pH 9.5) at 37°C for 5 min. […] The results are expressed as percentage of LiARG activity taking the enzymatic activity of the control as 100%. […]

[9] = Leishmania infantum, Macrophage, 48 h, infected macrophages treated 48 h, promastigote recovery, MTT, read-out: Amastigotes IC50 ± SE

Row | IC50 ([5]; 96 h, resazurin) | Compound | production of NO by L. infantum-infected macrophages [3] | Selectivity Index AMA [4] | Selectivity Index PRO [5] | CC50 at 48 h ([2]; RAW 264.7 macrophages) | IC50 [4, 9] | also measured
1 | > 1500 µM | O=C(c1ccccc1)C(C(O)c1ccccc1Cl)C(O)c1ccccc1Cl (stereo not shown) [LC37, 3-hydroxy-2-[-hydroxy(2-Chlorophenyl)methyl]-3-(2-Chlorophenyl)-1-phenyl-1-Propanone] | – | – | – | > 4000 µM | – | RAW 264.7 CC50 ± SE [7]: did not inhibit the growth of RAW 264.7 macrophages at the highest concentration tested; Promastigotes IC50 ± SE ([5]; 96 h, resazurin): did not display in vitro activity
2 | 747 ± 22.3 µM | COc1ccc(/C=C/C(=O)c2ccccc2Cl)cc1 [LC34] | no significant difference to the untreated control | 46.0 | 4.0 | 3010 µM | 65.4 ± 10.9 µM | –

Continued, compound first:

Row | Compound | IC50 ([5]; 96 h, resazurin) | production of NO by L. infantum-infected macrophages [3] | Selectivity Index AMA [4] | Selectivity Index PRO [5] | CC50 at 48 h ([2]; RAW 264.7 macrophages) | IC50 [4, 9] | also measured
3 | O=C1c2c(O)cc(O)cc2OC(c2ccc(O)c(O)c2)C1O (stereo not shown) [taxifolin] | – | – | – | – | – | – | LaARG inhibition [1]: 88%
4 | O=C(C=Cc1ccc([N+](=O)[O-])cc1)c1ccc(Br)cc1 [LC39, 1-(4-Bromophenyl)-3-(4-Nitrophenyl)-2-Propen-1-one] | – | no significant difference to the untreated control | 107.1 | 11.4 | – | – | CC50 at 48 h [2]: 4530 ± 212 µM; IC50 ([4]; Leishmania infantum, Macrophage, 48 h, read-out: Amastigotes IC50 ± SE, infected macrophages treated 48 h, promastigote recovery, MTT): 55.2 ± 3.8 µM; IC50 ([4]; read-out: Amastigotes IC50 ± SE, infected macrophages treated 48 h, promastigote recovery, MTT): 42.3 ± 17.1 µM; IC50 ([5]; 96 h): 398 ± 44.2 µM
5 | COc1ccc(C=CC(=O)c2ccc(Br)cc2)cc1OC [LC14, 1-(4-bromophenyl)-3-(3,4-dimethoxyphenyl)-2-Propen-1-one] | 283 ± 14.2 µM | – | – | <1 | 75.1 ± 8.9 µM | – | IC50 [6]: 58.9 ± 6.8 µM
6 | COc1ccc(C(=O)C=Cc2ccc([N+](=O)[O-])cc2)cc1 [LC41, 1-(4-Methoxyphenyl)-3-(4-Nitrophenyl)-2-Propen-1-one] | 319 ± 14.3 µM | significantly decreased | 26.2 | 3.6 | 1150 µM | 70.4 ± 9.6 µM | IC50 [6]: 13.5 ± 5.5 µM; IC50 ([4]; infected macrophages treated 48 h, promastigote recovery, MTT, read-out: Amastigotes IC50 ± SE): 43.7 ± 13.7 µM
7 | O=c1c(O)c(-c2ccc(O)c(O)c2)oc2cc(O)cc(O)c12 [quercetin] | – | – | – | – | – | – | ARGLi inhibition (%) (100 μM) [8]: 67.1 ± 10.3%
8 | O=C(C=Cc1ccc(F)cc1)c1ccccc1Cl [LC32, 1-(2-Chlorophenyl)-3-(4-fluorophenyl)-2-Propen-1-one] | 74.1 ± 10.9 µM | significantly decreased | 4.3 | 6.5 | 479 ± 19.5 µM | 112 ± 19.8 µM | –
